Tested on: patients with chronic constipation
Experiment: Clinical trial, primary efficacy: mean increase of 1 or more CSBM/week over baseline after 4 weeks of treatment (responders), by subgroup and genotype
Type: in vivo, human
Details: 6-mg bid vs placebo, 4 weeks
Description: Introduction. A clinical trial was performed to evaluate the efficacy of tegaserod (Zelmac®/Zelnorm™) at 6 mg bid (12 mg/day) or 2 mg bid (4 mg/day) vs. placebo by measuring the number of complete spontaneous bowel movements (CSBM) during the first 4 weeks of treatment. Secondary objectives included evaluating the number of CSBM during the entire 12-week treatment period, bowel habits, laxative use, and safety and tolerability issues. The clinical trial design consisted of a 2-week baseline period without medication, a 12-week, randomized, double-blind, placebo-controlled treatment period, and a 4-week withdrawal period without study medication. As part of the clinical trial, DNA was collected from patients at screening for pharmacogenetic analysis to evaluate genetic polymorphisms relating to drug targets and disease aetiology.
Samples. A total 1348 patients were randomized as the intent-to-treat (ITT) population. Blood samples from these patients were collected at the time of patient screening and DNA was extracted using the PUREGENE™ DNA Isolation Kit (D-50K). Of these, samples from 738 randomized patients had good quality genotype data for at least half of the 55 SNPs evaluated.
Clinical assessments. […] The primary efficacy endpoint evaluated was the increase of 1 or more CSBM/week over baseline after 4 weeks of treatment. A secondary endpoint evaluated in this genotyping study was RESP12, the increase of 1 of more CSBM/week over baseline after 12 weeks of treatment. Patients were classified as responders if they met these criteria and had completed at least 7 days of treatment. Additional secondary efficacy assessments were evaluated based on the weekly diary assessments, such as bothersome constipation, bothersome abdominal pain, and satisfaction with bowel habits at the end of the 12-week treatment period (using the baseline value as a co-variant for analysis).
Genotyping. A total of 61 polymorphisms in 23 candidate genes were selected for analysis. Genotyping was performed using the TaqMan® technology for most of the assays, while a few were performed in-house using the Third Wave Technologies Invader Assay technique (see TABLE 2 for assay IDs for all evaluated SNPs). Of the 61 SNPs genotyped, 55 yielded good quality, polymorphic genotypes for use in further evaluation.
Statistical analysis. Statistical analysis was performed using SAS version 8.2 (The SAS Institute, Cary, N.C., USA). Analysis methods included Fisher's Exact tests, analysis of Covariance (ANCOVA), logistic regression, and Mantel-Haenzel tests to determine odds ratios and 95% confidence intervals, with significance established at p<0.05. Calculation of linkage disequilibrium was performed using the GOLD (graphical overview of linkage disequilibrium) method described by Abecasis & Cookson, Bioinformatics 16: 182-3 (2000).
Demographic comparisons. TABLE 3 presents the demographic breakdown of the patients in the overall clinical study and those included in this genotype analysis. Distributions were similar between the genotype population and the total patient population. […] Based on these findings, it was decided to limit analysis to the Caucasian population, which accounted for nearly 90% of all patients, to prevent a confounding effect of race on subsequent genotype analyses. Furthermore, the analysis was also limited to those intent-to-treat patients that were treated with tegaserod or placebo for at least 7 days (total of 635 patients).
Comparison of overall response rates. TABLE 4 presents the overall response for the primary efficacy endpoint (a mean increase in 1 or more CSBM/week over baseline after 4 weeks) for tegaserod 6-mg bid compared with placebo for both the overall patient population and the subgroup of patients for which we had genotype data (all races and Caucasians only). […]

[H]/N=C(/NCCCCC)N/N=C/c1c[nH]c2ccc(OC)cc12 [tegaserod, Tegaserod]
Odds Ratio (All Caucasians (ITT, >=7 days), Age <65, M + F): 2.7 | Odds Ratio (All Caucasians (ITT, >=7 days), Age >=65, M + F): 1.2 | Odds Ratio (All Caucasians (ITT, >=7 days), Age All, Female): 2.6 | Odds Ratio (All Caucasians (ITT, >=7 days), Age All, M + F): 2.5 | Odds Ratio (All Caucasians (ITT, >=7 days), Age All, Male): 1.8 | Odds Ratio (All genotyped (ITT, >=7 days), Age <65, M + F): 2.8 | Odds Ratio (All genotyped (ITT, >=7 days), Age >=65, M + F): 2.4 | Odds Ratio (All genotyped (ITT, >=7 days), Age All, Female): 2.7 | Odds Ratio (All genotyped (ITT, >=7 days), Age All, M + F): 2.7 | Odds Ratio (All genotyped (ITT, >=7 days), Age All, Male): 2.5 | Odds Ratio (All patients (ITT, >=7 days), Age <65, M + F): 2.5 | Odds Ratio (All patients (ITT, >=7 days), Age >=65, M + F): 1.4 | Odds Ratio (All patients (ITT, >=7 days), Age All, Female): 2.4 | Odds Ratio (All patients (ITT, >=7 days), Age All, M + F): 2.3 | Odds Ratio (All patients (ITT, >=7 days), Age All, Male): 1.9 | Odds Ratio (Caucasians genotyped (ITT, >=7 days), Age <65, M + F, all genotypes): 2.8 | Odds Ratio (Caucasians genotyped (ITT, >=7 days), Age >=65, M + F, all genotypes): 2.1 | Odds Ratio (Caucasians genotyped (ITT, >=7 days), Age All, Female, all genotypes): 2.7 | Odds Ratio (Caucasians genotyped (ITT, >=7 days), Age All, M + F, all genotypes): 2.6 | Odds Ratio (Caucasians genotyped (ITT, >=7 days), Age All, Male, all genotypes): 2.5 | Odds Ratio (ITT Caucasians >=7 days, 0 of 14 SNPs): 1.1 | Odds Ratio (ITT Caucasians >=7 days, >=1 of 14 SNPs): 4.1 | Odds Ratio (ITT Caucasians >=7 days, AQP3 (PG ID 1838) genotype CC): 2.4 | Odds Ratio (ITT Caucasians >=7 days, AQP3 (PG ID 1838) genotype CG): 2.6 | Odds Ratio (ITT Caucasians >=7 days, AQP3 (PG ID 1838) genotype GG): 11.3 | Odds Ratio (ITT Caucasians >=7 days, Female (All ages), 0 of the 12 SNPs): 1.5 | Odds Ratio (ITT Caucasians >=7 days, Female (All ages), 1-12 of the 12 SNPs): 4.7 | Odds Ratio (ITT Caucasians >=7 days, HTR3B (PG ID 3755) genotype AA): 2.7 | Odds Ratio (ITT Caucasians >=7 days, HTR3B (PG ID 3755) genotype AC): 2.0 | Odds Ratio (ITT Caucasians >=7 days, HTR3B (PG ID 3755) genotype CC): 8.0 | Odds Ratio (ITT Caucasians >=7 days, HTR4 (PG ID 1746) genotype CC): 2.7 | Odds Ratio (ITT Caucasians >=7 days, HTR4 (PG ID 1746) genotype CT): 2.2 | Odds Ratio (ITT Caucasians >=7 days, HTR4 (PG ID 1746) genotype TT): 8.4 | Odds Ratio (ITT Caucasians >=7 days, HTR4 (PG ID 3743) genotype AA): 3.0 | Odds Ratio (ITT Caucasians >=7 days, HTR4 (PG ID 3743) genotype AC): 2.8 | Odds Ratio (ITT Caucasians >=7 days, HTR4 (PG ID 3743) genotype CC): 14.0 | Odds Ratio (ITT Caucasians >=7 days, HTR4 (PG ID 3747) genotype AA): 3.0 | Odds Ratio (ITT Caucasians >=7 days, HTR4 (PG ID 3747) genotype AT): 2.2 | Odds Ratio (ITT Caucasians >=7 days, HTR4 (PG ID 3747) genotype TT): 5.8 | Odds Ratio (ITT Caucasians >=7 days, HTR4 (PG ID 3753) genotype CC): 2.7 | Odds Ratio (ITT Caucasians >=7 days, HTR4 (PG ID 3753) genotype CT): 2.1 | Odds Ratio (ITT Caucasians >=7 days, HTR4 (PG ID 3753) genotype TT): 7.0 | Odds Ratio (ITT Caucasians >=7 days, HTR4 (PG ID 3754) genotype AA): 3.2 | Odds Ratio (ITT Caucasians >=7 days, HTR4 (PG ID 3754) genotype AT): 1.9 | Odds Ratio (ITT Caucasians >=7 days, HTR4 (PG ID 3754) genotype TT): 4.9 | Odds Ratio (ITT Caucasians >=7 days, HTR4 (PG ID 3756) genotype AA): 2.8 | Odds Ratio (ITT Caucasians >=7 days, HTR4 (PG ID 3756) genotype AC): 2.0 | Odds Ratio (ITT Caucasians >=7 days, HTR4 (PG ID 3756) genotype CC): 8.1 | Odds Ratio (ITT Caucasians >=7 days, M + F (<65), 0 of the 12 SNPs): 1.5 | Odds Ratio (ITT Caucasians >=7 days, M + F (<65), 1-12 of the 12 SNPs): 5.3 | Odds Ratio (ITT Caucasians >=7 days, M + F (>=65), 0 of the 12 SNPs): 0.3 | Odds Ratio (ITT Caucasians >=7 days, M + F (>=65), 1-12 of the 12 SNPs): 7.0 | Odds Ratio (ITT Caucasians >=7 days, M + F (All ages), 0 of the 12 high responder SNPs): 1.3 | Odds Ratio (ITT Caucasians >=7 days, M + F (All ages), 1-12 of the 12 high responder SNPs): 5.4 | Odds Ratio (ITT Caucasians >=7 days, MLN (PG ID 1783) genotype CC): 2.5 | Odds Ratio (ITT Caucasians >=7 days, MLN (PG ID 1783) genotype CT): 2.0 | Odds Ratio (ITT Caucasians >=7 days, MLN (PG ID 1783) genotype TT): 7.2 | Odds Ratio (ITT Caucasians >=7 days, Male (All ages), 0 of the 12 SNPs): 0.3 | Odds Ratio (ITT Caucasians >=7 days, Male (All ages), 1-12 of the 12 SNPs): 22.5 | Odds Ratio (ITT Caucasians >=7 days, SCNN1A (PG ID 3806) genotype GG): 5.0 | Odds Ratio (ITT Caucasians >=7 days, SCNN1A (PG ID 3806) genotype GT): 2.5 | Odds Ratio (ITT Caucasians >=7 days, SCNN1A (PG ID 3806) genotype TT): 1.9 | Odds Ratio (ITT Caucasians >=7 days, SLC12A2 (PG ID 1842) genotype AA): 12.0 | Odds Ratio (ITT Caucasians >=7 days, SLC12A2 (PG ID 1842) genotype AG): 1.1 | Odds Ratio (ITT Caucasians >=7 days, SLC12A2 (PG ID 1842) genotype GG): 2.9 | Odds Ratio (ITT Caucasians >=7 days, SLC12A2 (PG ID 3801) genotype CC): 17.0 | Odds Ratio (ITT Caucasians >=7 days, SLC12A2 (PG ID 3801) genotype CT): 0.8 | Odds Ratio (ITT Caucasians >=7 days, SLC12A2 (PG ID 3801) genotype TT): 3.8 | Odds Ratio (ITT Caucasians >=7 days, TPH1 (PG ID 1756) genotype GG): 5.4 | Odds Ratio (ITT Caucasians >=7 days, TPH1 (PG ID 1756) genotype GT): 2.4 | Odds Ratio (ITT Caucasians >=7 days, TPH1 (PG ID 1756) genotype TT): 1.5 | Odds Ratio (ITT Caucasians >=7 days, TPH1 (PG ID 3784) genotype CC): 1.6 | Odds Ratio (ITT Caucasians >=7 days, TPH1 (PG ID 3784) genotype CT): 2.4 | Odds Ratio (ITT Caucasians >=7 days, TPH1 (PG ID 3784) genotype TT): 5.5 | Odds Ratio (high responder genotypes of the twelve SNPs in six genes): ≥ 5
